# Values quoted from earlier work, collected in US20170341994A1, “PLANT GROWTH REGULATOR AND A METHOD OF USING THE SAME” (GLUCAN BIOLOGICAL TECHNOLOGY CO., LTD, priority 2016, published 2017).
# System: tumor
# Details: some studies
substance,measurement,value
β-glucan,inhibition of tumor growth,more than 95%
